This experiment relates to human CFTR. The experiment is described as follows: high-throughput compatible fluorescence membrane potential assay, forskolin dose-response in stable CFTR-expressing CHO cell lines. Particulars: stable CFTR-expressing CHO cell line, 15,000 cells/well, 384-well plate, membrane potential dye. The experiment is classed as cell-based. On the procedure: CHO cell lines stably expressing CFTR were maintained under standard cell culture conditions in Ham's F12 medium supplemented with 10% fetal bovine serum and glutamine. On the day before assay, the cells were harvested from stock plates and plated into black clear-bottom 384 well assay plates at a density that is sufficient to attain 90% confluency on the day of the assay. The assay plates were maintained in a 37° C. cell culture incubator under 5% CO2 for 22-24 hours. The media was then removed from the assay plates and blue membrane potential dye (Molecular Devices Inc.) diluted in loading buffer (137 mM NaCl, 5 mM KCl, 1.25 mM CaCl2, 25 mM HEPES, 10 mM glucose) was added and allowed to incubate for 1 hour at 37° C. The assay plates were then loaded on a fluorescent plate reader (Hamamatsu FDSS) and a cocktail of forskolin and IBMX dissolved in compound buffer (137 mM sodium gluconate, 5 mM potassium gluconate, 1.25 mM CaCl2, 25 mM HEPES, 10 mM glucose) was added. For forskolin dose-response experiments, cells of the produced stable CFTR-expressing cell lines, plated at a density of 15,000 cells/well in a 384-well plate were challenged with increasing concentration of forskolin, a known CFTR agonist. The cellular response as a function of changes in cell fluorescence was monitored over time by a fluorescent plate reader (Hamamatsu FDSS).

From patent publication US20150315554A1, “CELL LINES EXPRESSING CFTR AND METHODS OF USING THEM” (Chromocell Corporation, priority 2009, published 2015) come the findings set out here.

Where “and” joins values, the source holds several entries; their conditions need not be identical. Equal entries are not always repeated.

As for `C=C[C@@]1(C)CC(=O)[C@]2(O)[C@@]3(C)[C@@H](O)CCC(C)(C)[C@@H]3[C@H](O)[C@H](OC(C)=O)[C@@]2(C)O1` [forskolin], the EC50 was 256 nM and ~250 nM.
